This is an account of results in patent publication EP2862575B1, “APPLICATION OF PICEATANNOL-3'-O-B-D-GLUCOPYRANOSIDE IN PREPARATION OF MEDICAMENTS FOR IMPROVING MICROCIRCULATION BLOCK” (KPC Pharmaceuticals, Inc., priority 2012, dated 2013).

In data set [1] the test system is human. Kind of data set: maximum tolerated dose for human calculated from animal doses. The settings on record: calculated on the basis of a body weight of 60 kg from maximum tolerated dose of intramuscular and intravenous injection for animals. Type of data set: in vivo.
The nature of data set [2]: solubility test (excess compound shaken to equilibrium, UV at 319 nm). The note with it: 25±1°C, 72 h. Type of data set: physicochemical. Here is the method: A series of solutions of gastrodin or hydroxypropyl-β-cyclodextrin or a mixture of gastrodin and hydroxypropyl-β-cyclodextrin were prepared in volumetric flasks according to the concentrations specified in the tables below. Excessive piceatannol-3'-o-β-d-glucopyranoside was added to the solutions prepared above, which were then shaken at 25±1°C in a thermostatic water bath continuously for 72 h until equilibrium was reached. The solutions were precisely taken out and filtered through a 0.45µm filter. The filtered solutions were diluted to prepare test solutions containing 6µg piceatannol-3'-o-β-d-glucopyranoside per milliliter. Appropriate amount of control sample was precisely weighed out, dissolved in water and diluted to prepare a control solution. The absorbance values of both types of solutions were measured at 319 nm using UV spectrophotometry, from which the solubility can be calculated. The test results of solubility can be seen in the tables below: […]

Data set [3] in a line: genotoxicity test.
For data set [4], the system named is beagle dog. The data set can be described thus: acute toxicity test, gastric gavage, beagle dog. The settings on record: within 24 h.
Data set [5] has as its system mice. The data set can be described thus: acute and long-term toxicity tests in mice. Type of data set: in vivo. The settings on record: administrated in a range of safe dose.
The test system of data set [6] is mouse. The data set can be described thus: acute toxicity test, gastric gavage, mouse. The note with it: within 24 h.

As for `OCc1ccc(O[C@@H]2O[C@H](CO)[C@@H](O)[C@H](O)[C@H]2O)cc1` [Gastrodin, 4-hydroxymethylphenyl-β-D-glucopyranoside hemihydrate], the “maximum tolerated dose for human” value in data set [1] is on record as 33.249 g.

Consider `OC[C@H]1O[C@@H](Oc2cc(/C=C/c3cc(O)cc(O)c3)ccc2O)[C@H](O)[C@@H](O)[C@@H]1O` [piceatannol-3'-o-β-d-glucopyranoside], for which the “Solubility of piceatannol-3'-o-β-d-glucopyranoside” value is 186.789 mg/mL in data set [2] (Gastrodin 45 % + Hydroxypropyl-β-cyclodextrin 3 %), 188.029 mg/mL in data set [2] (Gastrodin 50 % + Hydroxypropyl-β-cyclodextrin 3 %), 180.509 mg/mL in data set [2] (Hydroxypropyl-β-cyclodextrin 45 %) and 183.10 mg/mL in data set [2] (Hydroxypropyl-β-cyclodextrin 50 %). Besides, the “chromosome aberration or mutagenesis” value in data set [3] was “no chromosome aberration or mutagenesis observed”. In addition, the “single maximum dosage given by gastric gavage” value in data set [4] was found to be 5 g/kg.bw; in data set [6], 13.33 g/kg.bw. In addition, the toxic effect result in data set [5] is recorded as “no toxic effect observed”.
